Patent US20210395256A1, “TYROSINE KINASE INHIBITORS, COMPOSITIONS AND METHODS THERE OF” (Betta Pharmaceuticals Co., Ltd., priority 2018, published 2021)
Counter-ions that a name gives are not always drawn.

The compounds below were run against TrkA kinase (Homo sapiens, UniProt P04629) (assay: TrkA kinase assay (mobility shift assay)). Conditions: class symbols; read-out: Trk A Kinase IC50.
TrkA kinase, sequence (P04629 33-796): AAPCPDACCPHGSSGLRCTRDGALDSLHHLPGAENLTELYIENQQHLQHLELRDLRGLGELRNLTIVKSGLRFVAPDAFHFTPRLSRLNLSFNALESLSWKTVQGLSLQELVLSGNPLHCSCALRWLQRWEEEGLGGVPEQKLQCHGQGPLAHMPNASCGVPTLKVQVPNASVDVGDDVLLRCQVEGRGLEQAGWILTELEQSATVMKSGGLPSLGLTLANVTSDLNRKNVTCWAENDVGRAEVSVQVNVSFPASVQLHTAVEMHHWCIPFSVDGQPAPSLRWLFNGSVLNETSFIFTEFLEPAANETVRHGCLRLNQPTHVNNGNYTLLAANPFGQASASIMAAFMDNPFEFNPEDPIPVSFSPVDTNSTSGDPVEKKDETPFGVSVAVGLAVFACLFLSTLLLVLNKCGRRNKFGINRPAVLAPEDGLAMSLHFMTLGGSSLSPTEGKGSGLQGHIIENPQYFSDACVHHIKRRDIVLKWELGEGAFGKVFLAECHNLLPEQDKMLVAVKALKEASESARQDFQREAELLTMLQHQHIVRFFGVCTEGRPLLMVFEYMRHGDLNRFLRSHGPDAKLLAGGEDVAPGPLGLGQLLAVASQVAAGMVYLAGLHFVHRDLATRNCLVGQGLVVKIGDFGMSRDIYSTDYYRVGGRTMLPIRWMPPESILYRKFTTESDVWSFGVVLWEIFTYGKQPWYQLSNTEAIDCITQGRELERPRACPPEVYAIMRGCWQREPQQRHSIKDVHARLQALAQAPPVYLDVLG
Format: biochemical
Description: Example 201 TrkA Kinase Assay
Mobility shift assay was used to determine the inhibitory activity of compounds against TrkA kinase. Assay procedures are as follows:
1× Kinase base buffer (50 mM HEPES, pH 7.5; 0.0015% Brij-35)
Stop buffer (100 mM HEPES, pH 7.5; 0.015% Brij-35; 0.2% Coating Reagent #3; 50 mM EDTA)
1) Dilute the compound to 50× of the final desired highest inhibitor concentration in reaction by 100% DMSO. Transfer 100 μl of this compound dilution to a well in a 96-well plate.
2) For all compounds, transfer the compound in tubes to one well on 96-well storage plate and serially dilute the compound by transferring 30 μl to 60 μl of 100% DMSO in the next well and so forth for a total of 10 concentrations.
3) Add 100 μl of 100% DMSO to two empty wells for no compound control and no enzyme control in the same 96-well plate. Mark the plate as source plate.
4) Prepare intermediate plate
Transfer 10 μl of compound from source plate to a new 96-well plate as the intermediate plate
Add 90 µl of 1× kinase buffer to each well of the intermediate plate.
Mix the compounds in intermediate plate for 10 min on shaker.
1) Transfer 5 μl of each well from the 96-well intermediate plate to a 384-well plate in duplicates. For example, A1 of the 96-well plate is transferred to A1 and A2 of the 384-well plate. A2 of the 96-well plate is transferred to A3 and A4 of the 384-well plate, and so on.
1) Prepare 2.5× enzyme solution
Add kinase in 1× kinase base buffer.
2) Prepare 2.5× peptide solution Add FAM-labeled peptide and ATP in the 1× kinase base buffer.
3) Assay plate already contains 5 μl of compound in 10% DMSO.
4) Transfer 2.5× enzyme solution to the assay plate
Add 10 μl of 2.5× enzyme solution to each well of the 384-well assay plate.
5) Incubate at room temperature for 10 min.
6) Transfer 2.5× peptide solution to the assay plate
Add 10 μl of 2.5× peptide solution to each well of the 384-well assay plate.
Kinase reaction conditions are shown as Table 11:
7) Kinase reaction and stop
Incubate at 28° C. for specified period of time.
Add 25 μl of stop buffer to stop reaction.
1) Copy conversion data from Caliper program.
2) Convert conversion values to inhibition values.
Percent inhibition=(max-conversion)/(max-min)*100.
“max” stands for DMSO control; “min” stands for low control.
3) Fit the data in XLFit excel add-in version 5.4.0.8 to obtain IC50 values.
Equation used is: Y=Bottom+(Top-Bottom)/(1+(IC50/X)^HillSlope)
`C#CC(O)c1nnc(-c2cnn3ccc(N4CCC[C@@H]4c4cc(F)ccc4F)nc23)[nH]1` (stereo partly drawn) [Compound 48, 1-(5-(5-((R)-2-(2,5-difluorophenyl)pyrrolidin-1-yl)pyrazolo[1,5-a]pyrimidin-3-yl)-4H-1,2,4-triazol-3-yl)prop-2-yn-1-ol] was tested, and the IC50 was at most 10 nM. For `CC(C)[C@H](N)C(=O)N[C@H](C(=O)O[C@@H](C)c1nnc(-c2cnn3ccc(N4CCC[C@@H]4c4cc(F)ccc4F)nc23)[nH]1)C(C)C` [Compound 55, (S)-1-(5-(5-((R)-2-(2,5-difluorophenyl)pyrrolidin-1-yl)pyrazolo[1,5-a]pyrimidin-3-yl)-4H-1,2,4-triazol-3-yl)ethyl L-valylvalinate hydrochloride], the IC50 was 10 to 50 nM. `Fc1ccc(F)c([C@H]2CCCN2c2ccn3ncc(-c4nnc(-c5ccc(Oc6ccccc6)cc5)[nH]4)c3n2)c1` [Compound 58, (R)-5-(2-(2,5-difluorophenyl)pyrrolidin-1-yl)-3-(5-(4-phenoxyphenyl)-4H-1,2,4-triazol-3-yl)pyrazolo[1,5-a]pyrimidine] showed an IC50 of over 50 nM. `Fc1ccc(F)c([C@H]2CCCN2c2ccn3ncc(-c4nnc(-c5ccc6cn[nH]c6c5)[nH]4)c3n2)c1` [Compound 59, (R)-3-(5-(1H-indazol-6-yl)-4H-1,2,4-triazol-3-yl)-5-(2-(2,5-difluorophenyl)pyrrolidin-1-yl)pyrazolo[1,5-a]pyrimidine] was tested, and the IC50 was at most 10 nM. `O[C@@H]1C[C@](O)(c2nnc(-c3cnn4ccc(N5CCC[C@@H]5c5cc(F)ccc5F)nc34)[nH]2)C[C@@H](O)[C@H]1O` [Compound 60, (1R,2S,3R,5S)-5-(5-(5-((R)-2-(2,5-difluorophenyl)pyrrolidin-1-yl)pyrazolo[1,5-a]pyrimidin-3-yl)-4H-1,2,4-triazol-3-yl)cyclohexane-1,2,3,5-tetraol] gave an IC50 of 10 to 50 nM. Work on `Fc1ccc(F)c([C@H]2CCCN2c2ccn3ncc(-c4nnc(-c5ccc6c(c5)OCC6)[nH]4)c3n2)c1` [Compound 61, (R)-5-(2-(2,5-difluorophenyl)pyrrolidin-1-yl)-3-(5-(2,3-dihydrobenzofuran-6-yl)-4H-1,2,4-triazol-3-yl)pyrazolo[1,5-a]pyrimidine] yielded an IC50 of at most 10 nM. Compound `Fc1ccc(F)c([C@H]2CCCN2c2ccn3ncc(-c4nc5ccc(N6CCN7CCC[C@@H]7C6)cc5[nH]4)c3n2)c1` [Compound 62, 5-((R)-2-(2,5-difluorophenyl)pyrrolidin-1-yl)-3-(6-((R)-hexahydropyrrolo[1,2-a]pyrazin-2(1H)-yl)-1H-benzo[d]imidazol-2-yl)pyrazolo[1,5-a]pyrimidine] has an IC50 of over 50 nM. Work on `Fc1ccc(F)c([C@H]2CCCN2c2ccn3ncc(-c4nc5ccc(N6CCN7CCC[C@@H]7C6)cc5s4)c3n2)c1` [Compound 63, 2-(5-((R)-2-(2,5-difluorophenyl)pyrrolidin-1-yl)pyrazolo[1,5-a]pyrimidin-3-yl)-6-((R)-hexahydropyrrolo[1,2-a]pyrazin-2(1H)-yl)benzo[d]thiazole] yielded an IC50 of over 50 nM. `Fc1ccc(F)c([C@H]2CCCN2c2ccn3ncc(-c4nc5cnc(N6CCOCC6)cc5[nH]4)c3n2)c1` [Compound 64, (R)-4-(2-(5-(2-(2,5-difluorophenyl)pyrrolidin-1-yl)pyrazolo[1,5-a]pyrimidin-3-yl)-1H-imidazo[4,5-c]pyridin-6-yl)morpholine] showed an IC50 of over 50 nM. With `COc1cc2nc(-c3cnn4ccc(N5CCC[C@@H]5c5cc(F)ccc5F)nc34)[nH]c2cc1C(C)O` (stereo partly drawn) [Compound 66, 1-(2-(5-((R)-2-(2,5-difluorophenyl)pyrrolidin-1-yl)pyrazolo[1,5-a]pyrimidin-3-yl)-5-methoxy-1H-benzo[d]imidazol-6-yl)ethan-1-ol] the IC50 was at most 10 nM. `CC(O)c1ccc2nc(-c3cnn4ccc(N5CCC[C@@H]5c5cc(F)ccc5F)nc34)oc2c1` (stereo partly drawn) [Compound 68, 1-(2-(5-((R)-2-(2,5-difluorophenyl)pyrrolidin-1-yl)pyrazolo[1,5-a]pyrimidin-3-yl)benzo[d]oxazol-6-yl)ethan-1-ol] gave an IC50 of at most 10 nM. With `OCc1ccc2nc(-c3cnn4ccc(N5CCC[C@@H]5c5cc(F)ccc5F)nc34)oc2c1` [Compound 69, (R)-(2-(5-(2-(2,5-difluorophenyl)pyrrolidin-1-yl)pyrazolo[1,5-a]pyrimidin-3-yl)benzo[d]oxazol-6-yl)methanol] the IC50 was at most 10 nM.

Same assay, conditions: numeric values; read-out: Trk A Kinase IC50
Work on `NC12CC(c3nnc(-c4cnn5ccc(N6CCC[C@@H]6c6cc(F)ccc6F)nc45)[nH]3)(C1)C2` [Compound 44, (R)-3-(5-(5-(2-(2,5-difluorophenyl)pyrrolidin-1-yl)pyrazolo[1,5-a]pyrimidin-3-yl)-4H-1,2,4-triazol-3-yl)bicyclo[1.1.1]pentan-1-amine] yielded an IC50 of 5.28 nM. With `OB1OCc2ccc(-c3nnc(-c4cnn5ccc(N6CCC[C@@H]6c6cc(F)ccc6F)nc45)[nH]3)cc21` [Compound 45, (R)-6-(5-(5-(2-(2,5-difluorophenyl)pyrrolidin-1-yl)pyrazolo[1,5-a]pyrimidin-3-yl)-4H-1,2,4-triazol-3-yl)benzo[c][1,2]oxaborol-1(3H)-ol] the IC50 was 0.8 nM. Compound `CCC(O)C(F)(F)c1nnc(-c2cnn3ccc(N4CCC[C@@H]4c4cc(F)ccc4F)nc23)[nH]1` (stereo partly drawn) [Compound 46, 1-(5-(5-((R)-2-(2,5-difluorophenyl)pyrrolidin-1-yl)pyrazolo[1,5-a]pyrimidin-3-yl)-4H-1,2,4-triazol-3-yl)-1,1-difluorobutan-2-ol] has an IC50 of 2.02 nM. For `Fc1ccc(F)c([C@H]2CCCN2c2ccn3ncc(-c4nnc(C5COCCN5)[nH]4)c3n2)c1` (stereo partly drawn) [Compound 49, 3-(5-(5-((R)-2-(2,5-difluorophenyl)pyrrolidin-1-yl)pyrazolo[1,5-a]pyrimidin-3-yl)-4H-1,2,4-triazol-3-yl)morpholine], the IC50 was 6.4 nM. With `Fc1ccc(F)c([C@H]2CCCN2c2ccn3ncc(-c4nnc(-c5ccc6[nH]ccc6c5)[nH]4)c3n2)c1` [Compound 50, (R)-3-(5-(1H-indol-5-yl)-4H-1,2,4-triazol-3-yl)-5-(2-(2,5-difluorophenyl)pyrrolidin-1-yl)pyrazolo[1,5-a]pyrimidine] the IC50 was 2.65 nM. `CC(C)C[C@H](N)C(=O)O[C@@H](C)c1nnc(-c2cnn3ccc(N4CCC[C@@H]4c4cc(F)ccc4F)nc23)[nH]1` [Compound 51, (S)-1-(5-(5-((R)-2-(2,5-difluorophenyl)pyrrolidin-1-yl)pyrazolo[1,5-a]pyrimidin-3-yl)-4H-1,2,4-triazol-3-yl)ethyl L-leucinate hydrochloride] gave an IC50 of 3 nM. `OCC(F)c1nnc(-c2cnn3ccc(N4CCC[C@@H]4c4cc(F)ccc4F)nc23)[nH]1` (stereo partly drawn) [Compound 52, 2-(5-(5-((R)-2-(2,5-difluorophenyl)pyrrolidin-1-yl)pyrazolo[1,5-a]pyrimidin-3-yl)-4H-1,2,4-triazol-3-yl)-2-fluoroethan-1-ol] showed an IC50 of 1.66 nM. Compound `OC1(c2nnc(-c3cnn4ccc(N5CCC[C@@H]5c5cc(F)ccc5F)nc34)[nH]2)CC1` [Compound 53, (R)-1-(5-(5-(2-(2,5-difluorophenyl)pyrrolidin-1-yl)pyrazolo[1,5-a]pyrimidin-3-yl)-4H-1,2,4-triazol-3-yl)cyclopropan-1-ol] has an IC50 of 1.4 nM. `CN1CCN(c2ccc(-c3nnc(-c4cnn5ccc(N6CCC[C@@H]6c6cc(F)ccc6F)nc45)[nH]3)cn2)CC1` [Compound 54, (R)-5-(2-(2,5-difluorophenyl)pyrrolidin-1-yl)-3-(5-(6-(4-methylpiperazin-1-yl)pyridin-3-yl)-4H-1,2,4-triazol-3-yl)pyrazolo[1,5-a]pyrimidine] was tested, and the IC50 was 1.17 nM. `Fc1ccc(F)c([C@H]2CCCN2c2ccn3ncc(-c4nnc(-c5ccc6ncccc6c5)[nH]4)c3n2)c1` [Compound 56, (R)-6-(5-(5-(2-(2,5-difluorophenyl)pyrrolidin-1-yl)pyrazolo[1,5-a]pyrimidin-3-yl)-4H-1,2,4-triazol-3-yl)quinoline] was tested, and the IC50 was 1.2 nM. `Fc1ccc(F)c([C@H]2CCCN2c2ccn3ncc(-c4nnc(-c5ccc6nc[nH]c6c5)[nH]4)c3n2)c1` [Compound 57, (R)-3-(5-(1H-benzo[d]imidazol-6-yl)-4H-1,2,4-triazol-3-yl)-5-(2-(2,5-difluorophenyl)pyrrolidin-1-yl)pyrazolo[1,5-a]pyrimidine] gave an IC50 of 0.6 nM. Compound `COc1cc2nc(-c3cnn4ccc(N5CCC[C@@H]5c5cc(F)ccc5F)nc34)[nH]c2cc1CO` [Compound 67, (R)-(2-(5-(2-(2,5-difluorophenyl)pyrrolidin-1-yl)pyrazolo[1,5-a]pyrimidin-3-yl)-5-methoxy-1H-benzo[d]imidazol-6-yl)methanol] has an IC50 of 0.32 nM.
